Data reported in patent publication US20260042773A1, “NOVEL CAMPTOTHECIN ANALOGS AND IMMUNOCONJUGATES THEREOF” (priority 2022, published 2026).

Experiments:
SK-BR-3 cells = assay: Cell viability (Cell Titer Glo 2.0) in SK-BR-3 cells; assay type: cell-based; settings: Homo sapiens, 120 hours at 37° C., Cell Titer Glo 2.0, normalized to non-treated controls
Method: (§1) SU-DHL-1 and SK-BR-3 cells (ATCC, Manassas, VA, USA) were seeded into 384-well white-walled culture plates and allowed to adhere for 2-4 hours. Cells were then treated at least in duplicate by addition of 5-fold serially diluted test articles prepared at 2× final concentration and incubated at 37° C. for 120 hours. Cell viability following treatment was determined by Cell Titer Glo 2.0 Assay (Promega, Madison, WI, USA) and normalized to non-treated controls. Dose-response relationships were analyzed using GraphPad Prism (La Jolla, C A, USA), and IC50 values were derived from non-linear regression analyses using a 4-parameter logistic equation.

SU-DHL-1 cells = assay: Cell viability (Cell Titer Glo 2.0) in SU-DHL-1 cells; assay type: cell-based; settings: Homo sapiens, 120 hours at 37° C., Cell Titer Glo 2.0, normalized to non-treated controls
Method: as §1

CC[C@@]1(O)C(=O)OCc2c1cc1n(c2=O)Cc2c-1nc1ccc(N)cc1c2CN1CCS(=O)(=O)CC1 [Compound 3]
IC50 (SK-BR-3 cells): > 20 nM | IC50 (SU-DHL-1 cells): > 20 nM

CC[C@@]1(O)C(=O)OCc2c1cc1n(c2=O)Cc2c-1nc1ccc(N)cc1c2N1CC2(CCOCC2)C1 [Compound 9]
IC50 (SK-BR-3 cells): 5 to 20 nM | IC50 (SU-DHL-1 cells): < 5 nM

CC[C@@]1(O)C(=O)OCc2c1cc1n(c2=O)Cc2c-1nc1ccc(N)cc1c2CN1CCN(C)CC1 [Compound 2]
IC50 (SK-BR-3 cells): > 20 nM | IC50 (SU-DHL-1 cells): 5 to 20 nM

CC[C@@]1(O)C(=O)OCc2c1cc1n(c2=O)Cc2c-1nc1ccc(N)cc1c2N1CCN(S(C)(=O)=O)CC1 [Compound 15]
IC50 (SK-BR-3 cells): > 20 nM | IC50 (SU-DHL-1 cells): 5 to 20 nM

CC[C@@]1(O)C(=O)OCc2c1cc1n(c2=O)Cc2c-1nc1ccc(N)cc1c2N1CCCC1 [Compound 6]
IC50 (SK-BR-3 cells): 5 to 20 nM | IC50 (SU-DHL-1 cells): 5 to 20 nM

CC[C@@]1(O)C(=O)OCc2c1cc1n(c2=O)Cc2c-1nc1ccc(N)cc1c2N1CCSCC1 [Compound 23]
IC50 (SK-BR-3 cells): < 5 nM | IC50 (SU-DHL-1 cells): < 5 nM

CC[C@@]1(O)C(=O)OCc2c1cc1n(c2=O)Cc2c-1nc1ccc(N)cc1c2CN1CCOCC1 [Compound 1]
IC50 (SK-BR-3 cells): 5 to 20 nM | IC50 (SU-DHL-1 cells): < 5 nM

CC[C@@]1(O)C(=O)OCc2c1cc1n(c2=O)Cc2c-1nc1ccc(N)cc1c2NC [Compound 19]
IC50 (SK-BR-3 cells): 5 to 20 nM | IC50 (SU-DHL-1 cells): > 20 nM

CC[C@@]1(O)C(=O)OCc2c1cc1n(c2=O)Cc2c-1nc1ccc(N)cc1c2N1CCOCC1 [Compound 5]
IC50 (SK-BR-3 cells): < 5 nM | IC50 (SU-DHL-1 cells): < 5 nM

CC[C@@]1(O)C(=O)OCc2c1cc1n(c2=O)Cc2c-1nc1ccc(N)cc1c2N1CC2(COC2)C1 [Compound 7]
IC50 (SK-BR-3 cells): 5 to 20 nM | IC50 (SU-DHL-1 cells): 5 to 20 nM

CC[C@@]1(O)C(=O)OCc2c1cc1n(c2=O)Cc2c-1nc1ccc(N)cc1c2N1CCCCC1 [Compound 12]
IC50 (SK-BR-3 cells): < 5 nM | IC50 (SU-DHL-1 cells): < 5 nM

CC[C@@]1(O)C(=O)OCc2c1cc1n(c2=O)Cc2c-1nc1ccc(N)cc1c2N(C)CCO [Compound 20]
IC50 (SK-BR-3 cells): > 20 nM | IC50 (SU-DHL-1 cells): > 20 nM

CC[C@@]1(O)C(=O)OCc2c1cc1n(c2=O)Cc2c-1nc1ccc(N)cc1c2N(C)CCOC [Compound 16]
IC50 (SK-BR-3 cells): 5 to 20 nM | IC50 (SU-DHL-1 cells): < 5 nM

CC[C@@]1(O)C(=O)OCc2c1cc1n(c2=O)Cc2c-1nc1ccc(N)cc1c2N [Compound 21]
IC50 (SK-BR-3 cells): 5 to 20 nM | IC50 (SU-DHL-1 cells): > 20 nM

CC[C@@]1(O)C(=O)OCc2c1cc1n(c2=O)Cc2c-1nc1ccc(N)cc1c2N(C)C [Compound 14]
IC50 (SK-BR-3 cells): 5 to 20 nM | IC50 (SU-DHL-1 cells): 5 to 20 nM

CC[C@@]1(O)C(=O)OCc2c1cc1n(c2=O)Cc2c-1nc1ccc(N)cc1c2COC [Compound 4]
IC50 (SK-BR-3 cells): < 5 nM | IC50 (SU-DHL-1 cells): < 5 nM

CC[C@@]1(O)C(=O)OCc2c1cc1n(c2=O)Cc2c-1nc1ccc(N)cc1c2N1CC2(CCOC2)C1 [Compound 11]
IC50 (SK-BR-3 cells): < 5 nM | IC50 (SU-DHL-1 cells): < 5 nM

CC[C@@]1(O)C(=O)OCc2c1cc1n(c2=O)Cc2c-1nc1ccc(N)cc1c2CO [Compound 10]
IC50 (SK-BR-3 cells): 5 to 20 nM | IC50 (SU-DHL-1 cells): 5 to 20 nM

CC[C@@]1(O)C(=O)OCc2c1cc1n(c2=O)Cc2c-1nc1ccc(N)cc1c2N1CCC1 [Compound 8]
IC50 (SK-BR-3 cells): 5 to 20 nM | IC50 (SU-DHL-1 cells): 5 to 20 nM

CC[C@@]1(O)C(=O)OCc2c1cc1n(c2=O)Cc2c-1nc1ccc(N)cc1c2N1C[C@H]2CC[C@@H](C1)O2 [Compound 18]
IC50 (SK-BR-3 cells): < 5 nM | IC50 (SU-DHL-1 cells): < 5 nM

CC[C@@]1(O)C(=O)OCc2c1cc1n(c2=O)Cc2c-1nc1ccc(N)cc1c2N(C)CCN(C)C [Compound 17]
IC50 (SK-BR-3 cells): > 20 nM | IC50 (SU-DHL-1 cells): > 20 nM
